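In this assay, cells in 96-well plates receive the compound at five concentrations for 48 hours. Endpoints are linearly interpolated between the surrounding concentrations. TGI: concentration producing complete growth inhibition.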
Columns and labels:
Assay in all cases: DTP human tumour cell line panel, 48 h
OVCAR-3 ovarian = system: OVCAR-3 ovarian
HT29 colon = system: HT29 colon
SK-MEL-5 melanoma = system: SK-MEL-5 melanoma
MDA-MB-231 breast = system: MDA-MB-231 breast
NCI/ADR-RES ovarian = system: NCI/ADR-RES ovarian
HOP-92 NSCLC = system: HOP-92 NSCLC
ACHN renal = system: ACHN renal
MDA-MB-435 = system: MDA-MB-435
TK-10 renal = system: TK-10 renal
MALME-3M melanoma = system: MALME-3M melanoma
SF-295 CNS = system: SF-295 CNS
NCI-H522 lung = system: NCI-H522 lung
MOLT-4 leukemia = system: MOLT-4 leukemia
UACC-62 melanoma = system: UACC-62 melanoma
NCI-H460 lung = system: NCI-H460 lung
KM12 colon = system: KM12 colon
OVCAR-4 ovarian = system: OVCAR-4 ovarian
DU-145 prostate = system: DU-145 prostate
SNB-19 CNS = system: SNB-19 CNS
RXF 393 renal = system: RXF 393 renal
EKVX NSCLC = system: EKVX NSCLC
CAKI-1 renal = system: CAKI-1 renal
K-562 leukemia = system: K-562 leukemia
HOP-62 NSCLC = system: HOP-62 NSCLC
NCI-H226 lung = system: NCI-H226 lung
LOX IMVI melanoma = system: LOX IMVI melanoma
A549 NSCLC = system: A549 NSCLC
NCI-H23 lung = system: NCI-H23 lung
T-47D breast = system: T-47D breast
PC-3 prostate = system: PC-3 prostate
OVCAR-8 ovarian = system: OVCAR-8 ovarian
BT-549 breast = system: BT-549 breast
COLO 205 colon = system: COLO 205 colon
SW-620 colon = system: SW-620 colon
UACC-257 melanoma = system: UACC-257 melanoma
CCRF-CEM leukemia = system: CCRF-CEM leukemia
IGROV1 ovarian = system: IGROV1 ovarian
HCT-15 colon = system: HCT-15 colon
SK-MEL-28 melanoma = system: SK-MEL-28 melanoma
SK-MEL-2 melanoma = system: SK-MEL-2 melanoma
A498 renal = system: A498 renal
HS 578T breast = system: HS 578T breast
RPMI-8226 leukemia = system: RPMI-8226 leukemia
HL-60(TB) leukemia = system: HL-60(TB) leukemia
MCF7 breast = system: MCF7 breast
SK-OV-3 ovarian = system: SK-OV-3 ovarian
HCT-116 colon = system: HCT-116 colon
UO-31 renal = system: UO-31 renal
U251 CNS = system: U251 CNS
SN12C renal = system: SN12C renal
SF-268 CNS = system: SF-268 CNS
786-0 renal = system: 786-0 renal
SF-539 CNS = system: SF-539 CNS
M14 melanoma = system: M14 melanoma
OVCAR-5 ovarian = system: OVCAR-5 ovarian
MDA-N = system: MDA-N
SNB-75 CNS = system: SNB-75 CNS
HCC-2998 colon = system: HCC-2998 colon

Work on CCCn1c(C23CC4CC(CC(C4)C2)C3)nc2ccc(Cl)cc2c1=O yielded a TGI (OVCAR-3 ovarian) greater than 100 µM, a TGI (HT29 colon) of 80.2 µM and a TGI (SK-MEL-5 melanoma) greater than 100 µM. The TGI (MDA-MB-231 breast) was greater than 100 µM, the TGI (NCI/ADR-RES ovarian) was greater than 100 µM and the TGI (HOP-92 NSCLC) was greater than 100 µM. It also gave a TGI (ACHN renal) of 47.9 µM, a TGI (MDA-MB-435) greater than 100 µM and a TGI (TK-10 renal) greater than 100 µM. It also gave a TGI (MALME-3M melanoma) greater than 100 µM, a TGI (SF-295 CNS) greater than 100 µM and a TGI (NCI-H522 lung) greater than 100 µM. It also gave a TGI (MOLT-4 leukemia) greater than 100 µM, a TGI (UACC-62 melanoma) greater than 100 µM and a TGI (NCI-H460 lung) greater than 100 µM. The TGI (KM12 colon) was greater than 100 µM, the TGI (OVCAR-4 ovarian) was greater than 100 µM and the TGI (DU-145 prostate) was 95.9 µM. It also gave a TGI (SNB-19 CNS) greater than 100 µM, a TGI (RXF 393 renal) of 29 µM and a TGI (EKVX NSCLC) of 95.4 µM. It also gave a TGI (CAKI-1 renal) greater than 100 µM, a TGI (K-562 leukemia) greater than 100 µM and a TGI (HOP-62 NSCLC) of 70.1 µM. For the same compound, the TGI (NCI-H226 lung) was greater than 100 µM, the TGI (LOX IMVI melanoma) was greater than 100 µM and the TGI (A549 NSCLC) was greater than 100 µM. It also gave a TGI (NCI-H23 lung) greater than 100 µM, a TGI (T-47D breast) greater than 100 µM and a TGI (PC-3 prostate) greater than 100 µM. The TGI (OVCAR-8 ovarian) was greater than 100 µM, the TGI (BT-549 breast) was greater than 100 µM and the TGI (COLO 205 colon) was greater than 100 µM. For the same compound, the TGI (SW-620 colon) was greater than 100 µM, the TGI (UACC-257 melanoma) was greater than 100 µM and the TGI (CCRF-CEM leukemia) was greater than 100 µM. It also gave a TGI (IGROV1 ovarian) greater than 100 µM, a TGI (HCT-15 colon) greater than 100 µM and a TGI (SK-MEL-28 melanoma) greater than 100 µM. The TGI (SK-MEL-2 melanoma) was greater than 100 µM, the TGI (A498 renal) was 66.1 µM and the TGI (HS 578T breast) was greater than 100 µM. It also gave a TGI (RPMI-8226 leukemia) greater than 100 µM, a TGI (HL-60(TB) leukemia) greater than 100 µM and a TGI (MCF7 breast) greater than 100 µM. The TGI (SK-OV-3 ovarian) was greater than 100 µM, the TGI (HCT-116 colon) was greater than 100 µM and the TGI (UO-31 renal) was 39.5 µM. For the same compound, the TGI (U251 CNS) was greater than 100 µM, the TGI (SN12C renal) was greater than 100 µM and the TGI (SF-268 CNS) was greater than 100 µM. The TGI (786-0 renal) was greater than 100 µM, the TGI (SF-539 CNS) was greater than 100 µM and the TGI (M14 melanoma) was greater than 100 µM. For the same compound, the TGI (OVCAR-5 ovarian) was greater than 100 µM and the TGI (MDA-N) was greater than 100 µM.
Compound CC(C)(CO)CNc1nc(N)nc(Cl)c1N has a TGI (OVCAR-3 ovarian) greater than 100 µM, a TGI (HT29 colon) greater than 100 µM and a TGI (SK-MEL-5 melanoma) greater than 100 µM. It also gave a TGI (MDA-MB-231 breast) greater than 100 µM, a TGI (NCI/ADR-RES ovarian) greater than 100 µM and a TGI (HOP-92 NSCLC) greater than 100 µM. It also gave a TGI (ACHN renal) greater than 100 µM, a TGI (MDA-MB-435) greater than 100 µM and a TGI (TK-10 renal) greater than 100 µM. For the same compound, the TGI (MALME-3M melanoma) was greater than 100 µM, the TGI (SF-295 CNS) was greater than 100 µM and the TGI (NCI-H522 lung) was greater than 100 µM. The TGI (MOLT-4 leukemia) was greater than 100 µM, the TGI (UACC-62 melanoma) was greater than 100 µM and the TGI (NCI-H460 lung) was greater than 100 µM. The TGI (KM12 colon) was greater than 100 µM, the TGI (OVCAR-4 ovarian) was greater than 100 µM and the TGI (DU-145 prostate) was greater than 100 µM. The TGI (SNB-19 CNS) was greater than 100 µM, the TGI (RXF 393 renal) was greater than 100 µM and the TGI (EKVX NSCLC) was greater than 100 µM. It also gave a TGI (CAKI-1 renal) greater than 100 µM, a TGI (K-562 leukemia) greater than 100 µM and a TGI (HOP-62 NSCLC) greater than 100 µM. The TGI (NCI-H226 lung) was greater than 100 µM, the TGI (LOX IMVI melanoma) was greater than 100 µM and the TGI (A549 NSCLC) was greater than 100 µM. The TGI (NCI-H23 lung) was greater than 100 µM, the TGI (T-47D breast) was greater than 100 µM and the TGI (PC-3 prostate) was greater than 100 µM. The TGI (SNB-75 CNS) was greater than 100 µM, the TGI (OVCAR-8 ovarian) was greater than 100 µM and the TGI (HCC-2998 colon) was greater than 100 µM. It also gave a TGI (BT-549 breast) greater than 100 µM, a TGI (COLO 205 colon) greater than 100 µM and a TGI (SW-620 colon) greater than 100 µM. It also gave a TGI (UACC-257 melanoma) greater than 100 µM, a TGI (CCRF-CEM leukemia) greater than 100 µM and a TGI (IGROV1 ovarian) greater than 100 µM. For the same compound, the TGI (HCT-15 colon) was greater than 100 µM, the TGI (SK-MEL-28 melanoma) was greater than 100 µM and the TGI (SK-MEL-2 melanoma) was greater than 100 µM. For the same compound, the TGI (HS 578T breast) was greater than 100 µM, the TGI (MCF7 breast) was greater than 100 µM and the TGI (SK-OV-3 ovarian) was greater than 100 µM. For the same compound, the TGI (HCT-116 colon) was greater than 100 µM, the TGI (UO-31 renal) was greater than 100 µM and the TGI (U251 CNS) was greater than 100 µM. It also gave a TGI (SN12C renal) greater than 100 µM, a TGI (SF-268 CNS) greater than 100 µM and a TGI (786-0 renal) greater than 100 µM. For the same compound, the TGI (SF-539 CNS) was greater than 100 µM, the TGI (OVCAR-5 ovarian) was greater than 100 µM and the TGI (MDA-N) was greater than 100 µM.

From PubChem BioAssay (NCI)
